Assay results: ChEMBL document CHEMBL1201862, “PubChem BioAssay data set” (2004)
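Five compound concentrations were applied to cells in 96-well plates for 48 hours; endpoints were derived by simple linear interpolation of the resulting dose-response curve. GI50 is the concentration that inhibits growth by half.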 The source made the active and inactive calls. Rule as the data show it: active = GI50 up to about 1.1 µM and inactive = higher.

Legend:
Assay in all cases: NCI-60 cell line screen, 48 h
RXF 393 = test system: RXF 393
K562 = test system: K562
RPMI-8226 = test system: RPMI-8226
MCF7 = test system: MCF7
SN12C = test system: SN12C
MOLT-4 = test system: MOLT-4
SW-620 = test system: SW-620
M14 = test system: M14
ACHN = test system: ACHN
HOP-62 = test system: HOP-62
SNB-19 = test system: SNB-19
CAKI-1 = test system: CAKI-1
T47D = test system: T47D
SK-MEL-2 = test system: SK-MEL-2
A498 = test system: A498
PC-3 = test system: PC-3
Malme-3M = test system: Malme-3M
SK-OV-3 = test system: SK-OV-3
NCI-H522 = test system: NCI-H522

Measured: GI50

NNc1nncc2[nH]nnc12
inactive: RXF 393 > 100 µM | K562 > 100 µM | RPMI-8226 > 100 µM | MCF7 > 100 µM | SN12C > 100 µM | MOLT-4 > 100 µM | SW-620 > 100 µM | M14 > 100 µM | ACHN > 100 µM | HOP-62 > 100 µM | SNB-19 > 100 µM | CAKI-1 > 100 µM | T47D > 100 µM | SK-MEL-2 > 100 µM | A498 > 100 µM | PC-3 > 100 µM

COc1cc2c(cc1OC)C1c3ccccc3CCN1CCC2.[O-][Cl+3]([O-])([O-])O (configuration not stated)
inactive: K562 76 µM | RPMI-8226 63.7 µM | MCF7 > 100 µM | SN12C > 100 µM | MOLT-4 > 100 µM | SW-620 > 100 µM | Malme-3M > 100 µM | M14 > 100 µM | ACHN > 100 µM | SK-OV-3 > 100 µM | HOP-62 > 100 µM | SNB-19 > 100 µM | CAKI-1 > 100 µM | T47D > 100 µM | PC-3 > 100 µM

O=[N+]([O-])C(=C1Nc2ccccc2N1)/C(Cl)=C(/Cl)N1CCOCC1
inactive: K562 43.3 µM | RPMI-8226 57.7 µM | MCF7 45.8 µM | SN12C > 100 µM | MOLT-4 17.4 µM | SW-620 30.5 µM | Malme-3M 27.2 µM | M14 88.5 µM | ACHN 71.8 µM | SK-OV-3 > 100 µM | HOP-62 97.9 µM | SNB-19 > 100 µM | CAKI-1 > 100 µM | T47D 15.1 µM | SK-MEL-2 > 100 µM | A498 > 100 µM | PC-3 87.7 µM

C=C(C(=O)OCC)C(=O)OCC
inactive: RXF 393 > 100 µM | K562 > 100 µM | RPMI-8226 > 100 µM | MCF7 > 100 µM | SN12C > 100 µM | MOLT-4 > 100 µM | SW-620 > 100 µM | Malme-3M > 100 µM | M14 > 100 µM | ACHN > 100 µM | SK-OV-3 > 100 µM | HOP-62 > 100 µM | SNB-19 > 100 µM | NCI-H522 > 100 µM | CAKI-1 > 100 µM | T47D > 100 µM | SK-MEL-2 > 100 µM | PC-3 > 100 µM

O=C(/C=C\Nc1ccccc1O)C(F)(F)F
inactive: RXF 393 > 100 µM | K562 38.5 µM | RPMI-8226 15.5 µM | MCF7 43.9 µM | SN12C 54.8 µM | MOLT-4 31.7 µM | SW-620 > 100 µM | Malme-3M 26.5 µM | M14 40.3 µM | ACHN 67.8 µM | SK-OV-3 49.1 µM | HOP-62 30.6 µM | SNB-19 > 100 µM | NCI-H522 31 µM | CAKI-1 68.1 µM | T47D 39 µM | SK-MEL-2 69 µM | PC-3 37.3 µM

COc1cc(OC)c2c(c1-c1ccc(C)cc1)CC(C)N(Cc1ccccc1)[C@H]2C (some centres not stated)
inactive: K562 22.1 µM | RPMI-8226 13.5 µM | MCF7 28.5 µM | SN12C 35.9 µM | MOLT-4 23.6 µM | SW-620 34.8 µM | Malme-3M 19.3 µM | M14 43.2 µM | ACHN 18.3 µM | SK-OV-3 31.8 µM | HOP-62 59 µM | SNB-19 67.9 µM | NCI-H522 33.5 µM | CAKI-1 63.8 µM | T47D 23.8 µM | A498 87.7 µM | PC-3 36.1 µM

CCN(CC)c1ccc2cc(C(N)=S)c(=N)oc2c1
inactive: RXF 393 > 100 µM | K562 > 100 µM | RPMI-8226 > 100 µM | MCF7 > 100 µM | SN12C > 100 µM | MOLT-4 > 100 µM | SW-620 > 100 µM | Malme-3M 87.9 µM | M14 > 100 µM | ACHN > 100 µM | SK-OV-3 > 100 µM | HOP-62 > 100 µM | SNB-19 > 100 µM | NCI-H522 > 100 µM | CAKI-1 > 100 µM | T47D > 100 µM | SK-MEL-2 > 100 µM | PC-3 > 100 µM

COc1ccc(/C=C/C(=O)CC(=O)/C=C/c2ccc(OC)cc2)cc1
inactive: RXF 393 23.8 µM | K562 32.7 µM | RPMI-8226 38.1 µM | MCF7 64.9 µM | SN12C 61.5 µM | MOLT-4 28 µM | SW-620 52.5 µM | Malme-3M 34.5 µM | M14 77.8 µM | SK-OV-3 > 100 µM | HOP-62 > 100 µM | SNB-19 89.9 µM | NCI-H522 7.94 µM | CAKI-1 62.4 µM | T47D > 100 µM | SK-MEL-2 > 100 µM | PC-3 19.9 µM

O=C1NC(=S)N/C1=C\c1ccc(Cl)cc1
inactive: RXF 393 > 100 µM | RPMI-8226 77.3 µM | MCF7 > 100 µM | SN12C > 100 µM | MOLT-4 80.2 µM | SW-620 > 100 µM | Malme-3M > 100 µM | M14 > 100 µM | SK-OV-3 > 100 µM | HOP-62 > 100 µM | SNB-19 > 100 µM | NCI-H522 > 100 µM | CAKI-1 > 100 µM | T47D 42.5 µM | SK-MEL-2 > 100 µM | PC-3 > 100 µM

O=C1C=CC2CCC1C2 (configuration not stated)
inactive: K562 27.4 µM | RPMI-8226 34 µM | MCF7 31.1 µM | SN12C 30.4 µM | MOLT-4 26.4 µM | SW-620 32.1 µM | Malme-3M 14.6 µM | M14 27.4 µM | ACHN 40.3 µM | SK-OV-3 24.4 µM | HOP-62 43.1 µM | SNB-19 28.4 µM | NCI-H522 17.7 µM | CAKI-1 27.5 µM | T47D 19.9 µM | SK-MEL-2 21.4 µM | A498 90.2 µM | PC-3 45 µM

O=C(O)CCCCC1CCSS1 (stereo not drawn) [LIPOIC ACID, ALPHA]
inactive: K562 > 100 µM | RPMI-8226 > 100 µM | MCF7 > 100 µM | SN12C > 10 µM | MOLT-4 > 100 µM | SW-620 > 100 µM | Malme-3M 43.1 µM | M14 77.1 µM | ACHN > 100 µM | HOP-62 > 100 µM | SNB-19 > 100 µM | NCI-H522 > 100 µM | CAKI-1 > 100 µM | T47D > 100 µM | SK-MEL-2 > 100 µM | PC-3 > 100 µM

C=CCOc1ccc(C(=N/NC(=O)c2ccccc2)/N=N/c2ccccc2)cc1OC
inactive: RXF 393 > 100 µM | MCF7 > 100 µM | SN12C > 100 µM | MOLT-4 42.6 µM | SW-620 > 100 µM | Malme-3M > 100 µM | M14 > 100 µM | ACHN > 100 µM | HOP-62 > 100 µM | SNB-19 > 100 µM | NCI-H522 93.5 µM | CAKI-1 > 100 µM | T47D 24 µM | SK-MEL-2 > 100 µM | A498 > 100 µM | PC-3 79.1 µM
